Results: ChEMBL document CHEMBL2034837, “Discovery of Natural Phenols as G Protein-Coupled Receptor-35 (GPR35) Agonists” (ACS Med Chem Lett, 2012)
Active and inactive are the calls of the source. The calls are words filed in the database; no cut-off is given here.

How the values were obtained:
[1] = molecular target: T1, G-protein coupled receptor 35 (Homo sapiens, UniProt Q9HC97); test: Agonist activity at GPR35 receptor in human HT-29 cells after 10 mins by dynamic mass redistribution assay; type: functional, cell-based
T1 sequence (Q9HC97 whole entry, the tested form may be a part): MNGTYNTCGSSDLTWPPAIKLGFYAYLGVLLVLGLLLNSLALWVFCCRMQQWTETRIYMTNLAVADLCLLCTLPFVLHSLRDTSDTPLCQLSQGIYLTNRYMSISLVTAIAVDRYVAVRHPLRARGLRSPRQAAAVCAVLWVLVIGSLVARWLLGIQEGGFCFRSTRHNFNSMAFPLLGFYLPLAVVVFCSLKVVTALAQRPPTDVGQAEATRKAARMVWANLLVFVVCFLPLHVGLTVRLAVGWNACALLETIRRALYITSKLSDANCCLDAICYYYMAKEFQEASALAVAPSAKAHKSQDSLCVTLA

[2] = molecular target: T1, G-protein coupled receptor 35; test: Partial agonist activity at GPR35 receptor in human U2OS cells coexpressing Gal4-VP16-TEV assessed as beta arrestin translocation after 5 hrs by beta lactamase reporter gene assay; type: functional, cell-based
[3] = molecular target: T1, G-protein coupled receptor 35; test: Agonist activity at GPR35 receptor in human HT-29 cells at 32 uM after 10 mins by dynamic mass redistribution assay in the presence of SPB05142; type: functional, cell-based
[4] = molecular target: T1, G-protein coupled receptor 35; test: Desensitization of GPR35 receptor in human HT-29 cells assessed as inhibition of zaprinast-induced dynamic mass redistribution after 10 mins; type: cell-based
[5] = molecular target: T1, G-protein coupled receptor 35; test: Agonist activity at GPR35 receptor in human HT-29 cells assessed as shift in resonant wavelength of biosensor stimulation after 10 mins by dynamic mass redistribution assay relative to control; type: functional, cell-based
[6] = molecular target: T1, G-protein coupled receptor 35; test: Agonist activity at GPR35 receptor in human U2OS cells coexpressing Gal4-VP16-TEV assessed as beta arrestin translocation after 5 hrs by beta lactamase reporter gene assay; type: functional, cell-based
[7] = molecular target: T1, G-protein coupled receptor 35; test: Agonist activity at GPR35 receptor in human U2OS cells coexpressing Gal4-VP16-TEV assessed as beta arrestin translocation after 5 hrs by beta lactamase reporter gene assay relative to control; type: functional, cell-based
[8] = molecular target: T1, G-protein coupled receptor 35; test: Agonist activity at GPR35 receptor in human HT-29 cells at 8 uM after 10 mins by dynamic mass redistribution assay in the presence of SPB05142; type: functional, cell-based
[9] = molecular target: T1, G-protein coupled receptor 35; test: Agonist activity at GPR35 receptor in human HT-29 cells at 16 uM after 10 mins by dynamic mass redistribution assay in the presence of SPB05142; type: functional, cell-based
[10] = molecular target: T1, G-protein coupled receptor 35; test: Agonist activity at GPR35 receptor in human HT-29 cells at 4 uM after 10 mins by dynamic mass redistribution assay in the presence of SPB05142; type: functional, cell-based
[11] = molecular target: T1, G-protein coupled receptor 35; test: Agonist activity at GPR35 receptor in human HT-29 cells at 2 uM after 10 mins by dynamic mass redistribution assay in the presence of SPB05142; type: functional, cell-based
[12] = molecular target: T1, G-protein coupled receptor 35; test: Partial agonist activity at GPR35 receptor in human HT-29 cells after 10 mins by dynamic mass redistribution assay; type: functional, cell-based

## O=C(O)c1cccnc1Nc1cccc(C(F)(F)F)c1
[1]
  Activity: Dose-dependent effect
[2]
  Activity: Active
[3]
  Activity: inactive
[4]
  Activity: Dose-dependent effect
[5]
  Efficacy: 260 picometer

## O=c1c(O)c(-c2ccc(O)cc2O)oc2cc(O)cc(O)c12 [MORIN]
[1]
  EC50: 1.33 µM
[6]
  EC50: 11.2 µM
[4]
  IC50: 1.6 µM
[5]
  Efficacy: 284 picometer
[7]
  Ratio: 9.8
[8]
  Activity: inactive

## CCCCCc1c2c(cc(O)c1C(=O)O)OC(=O)c1c(cc(OC)cc1C(=O)CCCC)O2 [LOBARIC ACID]
[1]
  EC50: 2.39 µM
[6]
  EC50: 17.6 µM
[4]
  IC50: 4.54 µM
[5]
  Efficacy: 317 picometer
[7]
  Ratio: 2
[9]
  Activity: inactive

## O=C(O)c1cc(O)c(=O)c2c(O)c(O)ccc2c1 [7-DESHYDROXYPYROGALLIN-4-CARBOXYLIC ACID]
[1]
  EC50: 0.054 µM
[6]
  EC50: 12.4 µM
[4]
  IC50: 0.11 µM
[5]
  Efficacy: 233 picometer
[7]
  Ratio: 10.9
[10]
  Activity: inactive

## O=c1oc2c(O)c(O)cc3c(=O)oc4c(O)c(O)cc1c4c23 [ELLAGIC ACID]
[1]
  EC50: 0.11 µM
[6]
  EC50: 2.96 µM
[4]
  IC50: 0.1 µM
[5]
  Efficacy: 319 picometer
[7]
  Ratio: 3.4
[11]
  Activity: inactive

## N#C/C(=C\c1ccc(O)cc1)C(=O)O [alpha-CYANO-4-HYDROXYCINNAMIC ACID]
[1]
  EC50: 9.8 µM
[6]
  EC50: 70.7 µM
[4]
  IC50: 30.4 µM
[5]
  Efficacy: 331 picometer
[7]
  Ratio: 4
[8]
  Activity: inactive

## O=c1c(O)c(-c2ccc(O)c(O)c2)oc2cc(O)cc(O)c12 [QUERCETIN]
[1]
  EC50: 8.02 µM
[6]
  EC50: 5.93 µM
[12]
  Activity: Active
[3]
  Activity: inactive
[4]
  IC50: 15.4 µM
[5]
  Efficacy: 40 picometer
[7]
  Ratio: 2.3

## CC(C)=CCC1=C(O)C(=O)c2ccccc2C1=O [LAPACHOL]
[1]
  EC50: 2.84 µM
[6]
  EC50: 47.9 µM
[4]
  IC50: 4.66 µM
[5]
  Efficacy: 328 picometer
[7]
  Ratio: 8.7
[8]
  Activity: inactive

## CCCOc1ccccc1-c1nc2[nH]nnc2c(=O)[nH]1
[5]
  Efficacy: 269 picometer

## O=c1cc(-c2ccc(O)c(O)c2)oc2cc(O)cc(O)c12 [LUTEOLIN]
[1]
  EC50: 7.24 µM
[6]
  EC50: 3.2 µM
[12]
  Activity: Active
[2]
  Activity: Active
[3]
  Activity: inactive
[4]
  IC50: 18.6 µM
[5]
  Efficacy: 68 picometer
[7]
  Ratio: 1.5

## CC(=O)NCCc1ccc(O)c(-c2c(O)c(O)c3c(c2O)C(=O)c2c(cc(O)c(C(=O)O)c2C(=O)O)C3=O)c1 [LACCACID ACID A]
[1]
  EC50: 0.39 µM
[6]
  EC50: 51.5 µM
[3]
  Activity: inactive
[4]
  IC50: 0.39 µM
[5]
  Efficacy: 263 picometer
[7]
  Ratio: 3.5

## O=c1c(O)c(-c2cc(O)c(O)c(O)c2)oc2cc(O)cc(O)c12 [MYRICETIN]
[1]
  EC50: 3.02 µM
[6]
  EC50: 14.7 µM
[12]
  Activity: Active
[4]
  IC50: 2.12 µM
[5]
  Efficacy: 224 picometer
[7]
  Ratio: 9.2
[8]
  Activity: inactive

## O=C1C=C2CC3(O)COc4c(ccc(O)c4O)C3=C2C=C1O (stereo unspecified) [HEMATEIN]
[1]
  EC50: 11.1 µM
[6]
  EC50: 4.7 µM
[4]
  IC50: 30.4 µM
[5]
  Efficacy: 391 picometer
[7]
  Ratio: 2.1
[9]
  Activity: inactive

## O=c1cc(-c2ccccc2)oc2cc(O)c(O)c(O)c12 [BAICALEIN]
[1]
  EC50: 10.3 µM
[6]
  EC50: 22.7 µM
[2]
  Activity: Active
[3]
  Activity: inactive
[4]
  IC50: 28.2 µM
[5]
  Efficacy: 248 picometer
[7]
  Ratio: 2.1

## Cc1c(C(=O)O)sc2c(Br)csc12
[6]
  EC50: 17.6 µM
[5]
  Efficacy: 283 picometer
[7]
  Ratio: 13.9
